The target in one data set is T1, human PDE4B1 (Homo sapiens, UniProt Q07343).
T1 construct: host or cells: Sf9 cells
As to the kind of experiment: cAMP HTRF assay to determine the activity of hPDE4B1. The format is biochemical. Conditions: inhibition of PDE4B at a test concentration of 1 μM. In outline:
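Human recombinant PDE4B1 from Sf9 cells (4.8 U) in Tris-HCl, MgCl2, DTT, Tween 20 buffer at pH 7.8 with 40 nM cAMP (final), 30 min at room temperature. Reaction stopped with 1 mM IBMX; remaining cAMP detected by HTRF (665/620 nm ratio). IC50 from eight-concentration curves.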
(In TR-FRET formats the signal depends on donor and acceptor labels being close together.)

T1 sequence (Q07343 whole entry): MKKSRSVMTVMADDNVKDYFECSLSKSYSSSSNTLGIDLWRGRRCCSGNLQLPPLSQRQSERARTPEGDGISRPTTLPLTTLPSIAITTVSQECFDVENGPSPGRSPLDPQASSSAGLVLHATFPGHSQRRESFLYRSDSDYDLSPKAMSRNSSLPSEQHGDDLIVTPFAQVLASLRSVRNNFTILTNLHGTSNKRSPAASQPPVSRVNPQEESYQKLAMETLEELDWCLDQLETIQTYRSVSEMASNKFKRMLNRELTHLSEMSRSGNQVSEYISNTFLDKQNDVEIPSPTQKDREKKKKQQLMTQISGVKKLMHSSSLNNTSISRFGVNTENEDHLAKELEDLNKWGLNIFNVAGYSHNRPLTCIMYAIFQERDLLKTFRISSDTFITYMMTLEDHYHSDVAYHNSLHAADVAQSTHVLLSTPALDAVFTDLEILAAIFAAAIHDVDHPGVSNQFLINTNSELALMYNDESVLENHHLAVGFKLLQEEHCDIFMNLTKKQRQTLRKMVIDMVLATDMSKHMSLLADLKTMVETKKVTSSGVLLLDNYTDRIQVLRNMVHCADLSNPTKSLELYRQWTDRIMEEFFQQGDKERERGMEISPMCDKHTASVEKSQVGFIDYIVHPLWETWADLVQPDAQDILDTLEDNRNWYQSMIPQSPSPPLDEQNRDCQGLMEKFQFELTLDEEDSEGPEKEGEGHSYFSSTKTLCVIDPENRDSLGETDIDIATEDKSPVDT

Consider `CS(=O)(=O)c1cn(-c2ncc(-c3ccccc3Cl)cn2)c2cc(C(=O)N3CCOCC3)ccc12` [Example 9, (1-(5-(2-Chlorophenyl)pyrimidin-2-yl)-3-(methylsulfonyl)-1H-indol-6-yl)(morpholino)methanone], for which the melting point (commonly the temperature, or range, at which the solid turns liquid) was 235 to 239 °C. On human PDE4B1, the inhibition (commonly the change of the read-out against control, counted positive when it falls) at 1 µM stood at 78%.

As for `CS(=O)(=O)c1cn(-c2ncc(-c3ccccc3)cn2)c2cc(C(=O)N3CCOCC3)ccc12` [Example 10, (3-(Methylsulfonyl)-1-(5-phenylpyrimidin-2-yl)-1H-indol-6-yl)(morpholino) methanone], the melting point lay within 270 to 274 °C. In addition, the inhibition at 1 µM against human PDE4B1 stood at 74%.

As for `C[S+]([O-])c1cn(-c2ncc(-c3cccnn3)cn2)c2cc(C(=O)N3CCOCC3)ccc12` (stereo not drawn) [Example 144, (3-(Methylsulfinyl)-1-(5-(pyridazin-3-yl)pyrimidin-2-yl)-1H-indol-6-yl)(morpholino)methanone], the melting point fell in the range of 261 to 265 °C. Moreover, at human PDE4B1, the inhibition at 1 µM came out at 47%.

`C[S+]([O-])c1cn(-c2ncc(-c3ccc(F)cc3F)cn2)c2cc(C(=O)N3CCNCC3)ccc12` (stereo not drawn) [Example 14, (1-(5-(2,4-Difluorophenyl)pyrimidin-2-yl)-3-(methylsulfinyl)-1H-indol-6-yl)(piperazin-1-yl)methanone]: the melting point was in the range of 198 to 201 °C. The inhibition at 1 µM at human PDE4B1 turned out to be 38%.

For the compound `C[S+]([O-])c1cn(-c2ncc(-c3cccc(O)c3)cn2)c2cc(C(=O)N3CCOCC3)ccc12` (stereo not drawn) [Example 149, (1-(5-(3-Hydroxyphenyl)pyrimidin-2-yl)-3-(methylsulfinyl)-1H-indol-6-yl)(morpholino)methanone], the melting point was in the range of 249 to 253 °C. For the same compound, the inhibition at 1 µM on human PDE4B1 is 87%.

`COc1cccc(-c2cnc(-n3cc(S(C)(=O)=O)c4ccc(C(=O)N5CCNC(=O)C5)cc43)nc2)c1` [Example 153, 4-(1-(5-(3-Methoxyphenyl)pyrimidin-2-yl)-3-(methylsulfonyl)-1H-indole-6-carbonyl)piperazin-2-one]: the melting point is 270 to 273 °C. The inhibition at 1 µM on human PDE4B1 was found to be 76%.

For the compound `C[S+]([O-])c1cn(-c2ncc(-c3ccccc3Cl)cn2)c2cc(C(=O)N3CCOCC3)ccc12` (stereo not drawn) [Example 3, (1-(5-(2-Chlorophenyl)pyrimidin-2-yl)-3-(methylsulfinyl)-1H-indol-6-yl)(morpholino) methanone], the melting point was 226 to 230 °C. For the same compound, the inhibition at 1 µM on human PDE4B1 was found to be 98%.

As to `CS(=O)(=O)c1cn(-c2ncc(-c3ccccc3C#N)cn2)c2cc(C(=O)N3CCOCC3)ccc12` [Example 8, 2-(2-(3-(Methylsulfonyl)-6-(morpholine-4-carbonyl)-1H-indol-1-yl)pyrimidin-5-yl)benzonitrile], the melting point lay within 265 to 269 °C. Also, at human PDE4B1, the inhibition at 1 µM turned out to be 50%.

`C[S+]([O-])c1cn(-c2ncc(-c3cccc(C(=O)O)c3)cn2)c2cc(C(=O)N3CCOCC3)ccc12` (stereo not drawn) [Example 193, 3-(2-(3-(Methylsulfinyl)-6-(morpholine-4-carbonyl)-1H-indol-1-yl)pyrimidin-5-yl)benzoic acid] returned a melting point of 230 to 235 °C. The inhibition at 1 µM on human PDE4B1 is 91%.

The compound `C[S+]([O-])c1cn(-c2ncc(-c3cc(C#N)ccc3F)cn2)c2cc(C(=O)N3CCOCC3)ccc12` (stereo not drawn) [Example 2, 4-Fluoro-3-(2-(3-(methylsulfinyl)-6-(morpholine-4-carbonyl)-1H-indol-1yl)pyrimidin-5-yl)benzonitrile] registered a melting point of 262 to 266 °C. Moreover, the inhibition at 1 µM against human PDE4B1 came out at 98%.

On to `C[S+]([O-])c1cn(-c2ncc(-c3nccs3)cn2)c2cc(C(=O)N3CCOCC3)ccc12` (stereo not drawn) [Example 211, (3-(Methylsulfinyl)-1-(5-(thiazol-2-yl)pyrimidin-2-yl)-1H-indol-6-yl)(morpholino)methanone], for which the melting point was in the range of 235 to 237 °C. Also, the inhibition at 1 µM at human PDE4B1 amounted to 85%.

In the case of `CS(=O)(=O)c1cn(-c2ncc(-c3ccccc3F)cn2)c2cc(C(=O)N3CCOCC3)ccc12` [Example 11, (1-(5-(2-Fluorophenyl)pyrimidin-2-yl)-3-(methylsulfonyl)-1H-indol-6-yl)(morpholino)methanone], the melting point was in the range of 267 to 270 °C. For the same compound, the inhibition at 1 µM against human PDE4B1 came out at 109%.

Compound `C[S+]([O-])c1cn(-c2ncc(-c3ccccc3)cn2)c2cc(C(=O)N3CCOCC3)ccc12` (stereo not drawn) [Example 4, (3-(Methylsulfinyl)-1-(5-phenylpyrimidin-2-yl)-1H-indol-6-yl)(morpholino) methanone] came in with a melting point of 239 to 242 °C. Also, the inhibition at 1 µM on human PDE4B1 was found to be 82%.

Consider `C[S+]([O-])c1cn(-c2ncc(-c3ccnc(F)c3)cn2)c2cc(C(=O)N3CCOCC3)ccc12` (stereo not drawn) [Example 187, (1-(5-(2-Fluoropyridin-4-yl)pyrimidin-2-yl)-3-(methylsulfinyl)-1H-indol-6-yl)(morpholino)methanone], for which the melting point lay within 285 to 288 °C. For the same compound, the inhibition at 1 µM at human PDE4B1 was found to be 56%.

In the case of `CC(C)(O)c1cn(-c2ncc(-c3ccccc3F)cn2)c2cc(C(=O)N3CCOCC3)ccc12` [Example 184, (1-(5-(2-Fluorophenyl)pyrimidin-2-yl)-3-(2-hydroxypropan-2-yl)-1H-indol-6-yl)(morpholino)methanone], the melting point is 116 to 119 °C. Also, the inhibition at 1 µM at human PDE4B1 is 86%.

`C[S+]([O-])c1cn(-c2ncc(-c3ccc(C(N)=O)cc3F)cn2)c2cc(C(=O)N3CCOCC3)ccc12` (stereo not drawn) [Example 19, 3-Fluoro-4-(2-(3-(methylsulfinyl)-6-(morpholine-4-carbonyl)-1H-indol-1-yl)pyrimidin-5-yl)benzamide]: the melting point was in the range of 202 to 206 °C. In addition, the inhibition at 1 µM at human PDE4B1 was found to be 94%.

In turn, `C[S+]([O-])c1cn(-c2ncc(-c3ccc(F)cn3)cn2)c2cc(C(=O)N3CCOCC3)ccc12` (stereo not drawn) [Example 200, (1-(5-(5-Fluoropyridin-2-yl)pyrimidin-2-yl)-3-(methylsulfinyl)-1H-indol-6-yl)(morpholino)methanone] showed a melting point of 244 to 248 °C. The inhibition at 1 µM on human PDE4B1 is 87%.

For `C[S+]([O-])c1cn(-c2ncc(-c3cc(N)ccc3F)cn2)c2cc(C(=O)N3CCOCC3)ccc12` (stereo not drawn) [Example 146, (1-(5-(5-Amino-2-fluorophenyl)pyrimidin-2-yl)-3-(methylsulfinyl)-1H-indol-6-yl)(morpholino)methanone], the melting point lay within 188 to 192 °C. Also, at human PDE4B1, the inhibition at 1 µM is 118%.

As for `C[S+]([O-])c1cn(-c2ncc(-c3cc(O)ccn3)cn2)c2cc(C(=O)N3CCOCC3)ccc12` (stereo not drawn) [Example 147, (1-(5-(4-Hydroxypyridin-2-yl)pyrimidin-2-yl)-3-(methylsulfinyl)-1H-indol-6-yl)(morpholino)methanone], the melting point lay within 272 to 276 °C. Besides, on human PDE4B1, the inhibition at 1 µM is 67%.

In the case of `COC(=O)c1ccc(-c2cnc(-n3cc([S+](C)[O-])c4ccc(C(=O)N5CCOCC5)cc43)nc2)cc1` (stereo not drawn) [Example 190, Methyl 4-(2-(3-(methylsulfinyl)-6-(morpholine-4-carbonyl)-1H-indol-1-yl)pyrimidin-5-yl)benzoate], the melting point was in the range of 256 to 258 °C. Besides, the inhibition at 1 µM on human PDE4B1 was 90%.

Compound `C[S+]([O-])c1cn(-c2ncc(-c3ccc(C(N)=O)cn3)cn2)c2cc(C(=O)N3CCOCC3)ccc12` (stereo not drawn) [Example 199, 6-(2-(3-(Methylsulfinyl)-6-(morpholine-4-carbonyl)-1H-indol-1-yl)pyrimidin-5-yl)nicotinamide] came in with a melting point of 288 to 290 °C. Moreover, on human PDE4B1, the inhibition at 1 µM turned out to be 99%.

`CN(C)c1ccnc(-c2cnc(-n3cc([S+](C)[O-])c4ccc(C(=O)N5CCOCC5)cc43)nc2)c1` (stereo not drawn) [Example 210, (1-(5-(4-(Dimethylamino)pyridin-2-yl)pyrimidin-2-yl)-3-(methylsulfinyl)-1H-indol-6-yl)(morpholino)methanone] returned a melting point of 213 to 217 °C. In addition, the inhibition at 1 µM at human PDE4B1 stood at 96%.

Compound `CS(=O)(=O)c1cn(-c2ncc(-c3ccc(C(N)=O)cc3F)cn2)c2cc(C(=O)N3CCOCC3)ccc12` [Example 7, 3-Fluoro-4-(2-(3-(methylsulfonyl)-6-(morpholine-4-carbonyl)-1H-indol-1-yl)pyrimidin-5-yl)benzamide] showed a melting point of 263 to 266 °C. Further, the inhibition at 1 µM on human PDE4B1 was found to be 88%.

As to `COc1ccc(F)c(-c2cnc(-n3cc(S(C)(=O)=O)c4ccc(C(=O)N5CCNC(=O)C5)cc43)nc2)c1` [Example 152, 4-(1-(5-(2-Fluoro-5-methoxyphenyl)pyrimidin-2-yl)-3-(methylsulfonyl)-1H-indole-6-carbonyl)piperazin-2-one], the melting point fell in the range of 293 to 295 °C. At human PDE4B1, the inhibition at 1 µM was found to be 90%.

In turn, `CCc1cccc(-c2cnc(-n3cc([S+](C)[O-])c4ccc(C(=O)N5CCOCC5)cc43)nc2)c1` (stereo not drawn) [Example 189, (1-(5-(3-Ethylphenyl)pyrimidin-2-yl)-3-(methylsulfinyl)-1H-indol-6-yl)(morpholino)methanone] came in with a melting point of 162 to 165 °C. Moreover, the inhibition at 1 µM against human PDE4B1 turned out to be 109%.

As to `Cc1cc(-c2cnc(-n3cc([S+](C)[O-])c4ccc(C(=O)N5CCOCC5)cc43)nc2)ccn1` (stereo not drawn) [Example 186, (1-(5-(2-Methylpyridin-4-yl)pyrimidin-2-yl)-3-(methylsulfinyl)-1H-indol-6-yl)(morpholino)methanone], the melting point was in the range of 230 to 232 °C. Also, the inhibition at 1 µM at human PDE4B1 was found to be 74%.

For `C[S+]([O-])c1cn(-c2ncc(-c3cccc(Cl)c3)cn2)c2cc(C(=O)N3CCOCC3)ccc12` (stereo not drawn) [Example 194, (1-(5-(3-Chlorophenyl)pyrimidin-2-yl)-3-(methylsulfinyl)-1H-indol-6-yl)(morpholino)methanone], the melting point lay in the range of 211 to 213 °C. For the same compound, at human PDE4B1, the inhibition at 1 µM is 92%.

These data come from patent publication US9315490B2, “2,5-substituted pyrimidines” (Grünenthal GmbH, priority 2014, dated 2016).
